Earlier results in patent US20110086017A1, “Medical Food composition and methods for management of inflammatory processes in mammals” (priority 2009, published 2011).

Tested on: plasma exudate at the site of inflammation
Conditions: animal study; by decreasing bradykinin and pre-kallikrein levels

Substance: Bromelain
- plasma exudate at the site of inflammation: dose-dependently reduced plasma exudate
